Measurements published in the NIST ThermoML archive (doi:10.1021/acs.jced.8b00011).
“And” between values parts separate entries of the source, which are not always exact repeats. Equal entries are not always repeated. ± gives the expanded uncertainty stated by the source.

Details: Liquid; for mass density: Vibrating tube method; for electrical conductivity: electrochemical impedance spectroscopy

CCCCC[P+](CC)(CC)CC.O=S(=O)([N-]S(=O)(=O)C(F)(F)F)C(F)(F)F
Details | electrical conductivity [S/m] | viscosity
273.15 K, 100 kPa, Concentric cylinders viscometry | – | 391.1 ± 13 mPa·s
273.15 K, 100 kPa, Falling or rolling sphere viscometry | – | 396.2 ± 28 mPa·s and 396 ± 28 mPa·s
278.15 K, 100 kPa, Concentric cylinders viscometry | – | 275.6 ± 8.5 mPa·s
278.15 K, 100 kPa, Falling or rolling sphere viscometry | – | 278.3 ± 16 mPa·s and 278.2 ± 16 mPa·s
283.14 K, 149300 kPa, Frequency=0 MHz | 0.0123 ± 0.00025 | –
283.14 K, 174300 kPa, Frequency=0 MHz | 0.00927 ± 0.00019 | –
283.15 K, 100 kPa, Concentric cylinders viscometry | – | 199.6 ± 5.6 mPa·s
283.15 K, 100 kPa, Falling or rolling sphere viscometry | – | 201.3 ± 9.7 mPa·s and 200.4 ± 9.7 mPa·s
283.15 K, 100 kPa, Frequency=0 MHz | 0.076 ± 0.0015 | –
283.15 K, 1200 kPa, Frequency=0 MHz | 0.0749 ± 0.0015 | –
283.15 K, 3100 kPa, Frequency=0 MHz | 0.0728 ± 0.0015 | –
283.15 K, 5100 kPa, Frequency=0 MHz | 0.0709 ± 0.0014 | –
283.15 K, 10600 kPa, Falling or rolling sphere viscometry | – | 228.6 ± 12 mPa·s
283.15 K, 15400 kPa, Frequency=0 MHz | 0.0618 ± 0.0012 | –
283.15 K, 20500 kPa, Frequency=0 MHz | 0.0578 ± 0.0012 | –
283.15 K, 20600 kPa, Falling or rolling sphere viscometry | – | 263 ± 15 mPa·s
283.15 K, 25600 kPa, Frequency=0 MHz | 0.054 ± 0.0011 | –
283.15 K, 30300 kPa, Falling or rolling sphere viscometry | – | 302.4 ± 19 mPa·s
283.15 K, 30600 kPa, Frequency=0 MHz | 0.0507 ± 0.001 | –
283.15 K, 40800 kPa, Falling or rolling sphere viscometry | – | 352.7 ± 24 mPa·s
283.15 K, 42000 kPa, Frequency=0 MHz | 0.0437 ± 0.00088 | –
283.15 K, 50300 kPa, Frequency=0 MHz | 0.0394 ± 0.00079 | –
283.15 K, 50700 kPa, Falling or rolling sphere viscometry | – | 398.9 ± 28 mPa·s
283.15 K, 60900 kPa, Falling or rolling sphere viscometry | – | 459.1 ± 35 mPa·s
283.15 K, 71400 kPa, Falling or rolling sphere viscometry | – | 527.1 ± 42 mPa·s
283.15 K, 74900 kPa, Frequency=0 MHz | 0.0294 ± 0.00059 | –
283.15 K, 80400 kPa, Falling or rolling sphere viscometry | – | 599.8 ± 51 mPa·s
283.15 K, 88200 kPa, Falling or rolling sphere viscometry | – | 667.7 ± 59 mPa·s
283.15 K, 94700 kPa, Falling or rolling sphere viscometry | – | 740.8 ± 68 mPa·s
283.15 K, 99800 kPa, Frequency=0 MHz | 0.0219 ± 0.00044 | –
283.15 K, 126100 kPa, Frequency=0 MHz | 0.016 ± 0.00032 | –
283.16 K, 2100 kPa, Frequency=0 MHz | 0.0741 ± 0.0015 | –
283.16 K, 10300 kPa, Frequency=0 MHz | 0.0661 ± 0.0013 | –
283.16 K, 199900 kPa, Frequency=0 MHz | 0.00703 ± 0.00014 | –
288.15 K, 100 kPa, Concentric cylinders viscometry | – | 148 ± 3.9 mPa·s
293.15 K, 100 kPa, Concentric cylinders viscometry | – | 111.8 ± 2.7 mPa·s and 112.2 ± 2.8 mPa·s and 112 ± 2.7 mPa·s
293.15 K, 100 kPa, Falling or rolling sphere viscometry | – | 112.7 ± 3.8 mPa·s
298.14 K, 176500 kPa, Frequency=0 MHz | 0.0255 ± 0.00051 | –
298.15 K, 100 kPa, Concentric cylinders viscometry | – | 86.33 ± 2 mPa·s
298.15 K, 100 kPa, Falling or rolling sphere viscometry | – | 87.05 ± 3.3 mPa·s and 87.04 ± 3.3 mPa·s and 87.45 ± 3.4 mPa·s
298.15 K, 100 kPa, Frequency=0 MHz | 0.165 ± 0.0033 | –
298.15 K, 600 kPa, Falling or rolling sphere viscometry | – | 86.57 ± 2.4 mPa·s
298.15 K, 3400 kPa, Frequency=0 MHz | 0.159 ± 0.0032 | –
298.15 K, 5100 kPa, Frequency=0 MHz | 0.155 ± 0.0031 | –
298.15 K, 9800 kPa, Frequency=0 MHz | 0.146 ± 0.0029 | –
298.15 K, 10500 kPa, Falling or rolling sphere viscometry | – | 99.67 ± 3.1 mPa·s
298.15 K, 15000 kPa, Frequency=0 MHz | 0.138 ± 0.0028 | –
298.15 K, 20500 kPa, Falling or rolling sphere viscometry | – | 114.4 ± 3.9 mPa·s
298.15 K, 20900 kPa, Frequency=0 MHz | 0.129 ± 0.0026 | –
298.15 K, 25800 kPa, Frequency=0 MHz | 0.122 ± 0.0024 | –
298.15 K, 30600 kPa, Falling or rolling sphere viscometry | – | 130.4 ± 4.9 mPa·s
298.15 K, 31200 kPa, Frequency=0 MHz | 0.114 ± 0.0023 | –
298.15 K, 40500 kPa, Falling or rolling sphere viscometry | – | 148 ± 6 mPa·s
298.15 K, 41000 kPa, Frequency=0 MHz | 0.102 ± 0.002 | –
298.15 K, 50500 kPa, Falling or rolling sphere viscometry | – | 167.4 ± 7.3 mPa·s
298.15 K, 51100 kPa, Frequency=0 MHz | 0.0914 ± 0.0018 | –
298.15 K, 56700 kPa, Frequency=0 MHz | 0.0859 ± 0.0017 | –

Details | electrical conductivity | mass density
273.15 K, 100 kPa | – | 1323.74 ± 1.9 kg/m3 and 1324 ± 1.9 kg/m3 and 1323.6 ± 1.3 kg/m3
273.15 K, 101.33 kPa | 0.0399 S/m and 0.04 S/m | –
278.15 K, 100 kPa | – | 1319.92 ± 1.9 kg/m3 and 1319.6 ± 1.9 kg/m3 and 1319.31 ± 1.3 kg/m3
278.15 K, 101.33 kPa | 0.0556 S/m and 0.0557 S/m | –
283.15 K, 100 kPa | – | 1315.3 ± 1.9 kg/m3 [middle of 4 runs]
283.15 K, 101.33 kPa | 0.0756 S/m and 0.076 S/m and 0.0755 S/m | –
288.15 K, 100 kPa | – | 1311.35 ± 1.9 kg/m3 and 1311 ± 1.9 kg/m3 and 1310.72 ± 1.3 kg/m3
288.16 K, 101.33 kPa | 0.1 S/m | –
293.15 K, 100 kPa | – | 1306.8 ± 1.8 kg/m3 [middle of 4 runs]
293.15 K, 101.33 kPa | 0.13 S/m | –
298.15 K, 100 kPa | – | 1302.45 ± 1.8 kg/m3 [middle of 6 runs]
298.15 K, 101.33 kPa | 0.166 S/m and 0.165 S/m | –
298.15 K, 1000 kPa | – | 1302.82 ± 1.3 kg/m3
298.15 K, 5000 kPa | – | 1305.75 ± 1.3 kg/m3
298.15 K, 10000 kPa | – | 1309.28 ± 1.3 kg/m3
298.15 K, 15000 kPa | – | 1312.76 ± 1.4 kg/m3
298.15 K, 20000 kPa | – | 1316.13 ± 1.4 kg/m3
298.15 K, 25000 kPa | – | 1319.42 ± 1.4 kg/m3
298.15 K, 30000 kPa | – | 1322.62 ± 1.4 kg/m3
298.15 K, 35000 kPa | – | 1325.82 ± 1.5 kg/m3
298.15 K, 40000 kPa | – | 1328.9 ± 1.5 kg/m3
298.15 K, 45000 kPa | – | 1331.96 ± 1.6 kg/m3
298.15 K, 50010 kPa | – | 1334.83 ± 1.6 kg/m3
